These results are taken from Sander's compilation of Henry's law constants (doi:10.1016/s0378-3812(99)00193-4).

The series in a line: Henry solubility constant Hcp at 298.15 K (mol/(m3 Pa)). The note with it: reference: Ryu and Park (1999).
Turning to `CCCCCCCCC` [nonane], the “Henry solubility constant Hcp” value was determined as 2.2e-06.
In the case of `ClCCl` [dichloromethane] it was 0.0041.
With `CCCCc1ccccc1` [butylbenzene] the figure was 0.00074; with `CCCCCc1ccccc1` [pentylbenzene], 0.00061.
With `ClC(Cl)=C(Cl)Cl` [tetrachloroethene] the figure was 0.00053; with `CCCCCCC` [heptane], 4.5e-06.
As for `Cc1ccc(C)cc1` [1,4-dimethylbenzene], the “Henry solubility constant Hcp” value was found to be 0.0014.
In the case of `CCCCCCCC` [octane] it was 3.4e-06; in that of `CCCCCC` [hexane], 6.1e-06; in that of `ClC=C(Cl)Cl` [trichloroethene], 0.00095.
In the case of `ClC(Cl)(Cl)Cl` [tetrachloromethane] it was 0.00038; in that of `CCc1ccccc1` [ethylbenzene], 0.0011.
With `Cc1ccccc1` [methylbenzene] the figure was 0.0015.
Take `Clc1ccccc1` [chlorobenzene]: the “Henry solubility constant Hcp” value came out at 0.0019.
With `c1ccccc1` [benzene] the figure was 0.0017.
